Source: patent US5292734A, “Angiotensin II receptor blocking 2,3,6 substituted quinazolinones” (American Cyanamid Company, priority 1993, dated 1994)
Where “and” joins values, the source holds several entries; their conditions need not be identical. Equal entries are not always repeated.

System: Angiotensin II (AII) vasopressor response
Experiment: AII challenge: vasopressor response of angiotensin II in conscious SHR
Type: in vivo, rat (Conscious Male Okamoto-Aoki SHR)
Details: for % Inhibition / Average Change: SHR n = 2; for Response After AII / Change / Control Before AII: single rat, SHR
Text: By administering a compound of this invention to a rat, and then challenging with angiotensin II, a blockage of the vasopressor response is realized.
Conscious Male Okamoto-Aoki SHR, 16-20 weeks old, weighing approximately 330 g are purchased from Charles River Labs (Wilmington, Mass.). Conscious rats are restrained in a supine position with elastic tape. The area at the base of the tail is locally anesthetized by subcutaneous infiltration with 2% procaine. The ventral caudal artery and vein are isolated, and a cannula made of polyethylene (PE) 10-20 tubing (fused together by heat) is passed into the lower abdominal aorta and vena cava, respectively. The cannula is secured, heparinized (1,000 I.U./ml), sealed and the wound is closed. The animals are placed in plastic restraining cages in an upright position. The cannula is attached to a Statham P23Db pressure transducer, and pulsatile blood pressure is recorded to 10-15 minutes with a Gould Brush recorder. (Chan et al., (Drug Development Res., 18:75-94, 1989).
Angiotensin II (human sequence, Sigma Chem. Co., St. Louis, Mo.) of 0.05 and 0.1 ug/kg i.v. is injected into all rats (predosing response). Then a test compound, vehicle or a known angiotensin II antagonist is administered i.v., i.p. or orally to each set of rats. The two doses of angiotensin II are given to each rat again at 30, 60, 90, 120, 180, 240 and 300 minutes post dosing the compound or vehicle. The vasopressor response of angiotensin II is measured for the increase in systolic blood pressure in mmhg. The percentage of antagonism or blockade of the vasopressor response of angiotensin II by a compound is calculated using the vasopressor response (increase in systolic blood pressure) of angiotensin II of each rat predosing the compound as 100%. A compound is considered active if at 30 mg/kg i.v. it antagonized at least 50% of the response.

[1] = 1 mg/kg I.V., AII 0.05 mcg/kg IV, 30 min post dose
[2] = 1 mg/kg I.V., AII 0.05 mcg/kg IV, 60 min post dose
[3] = 1 mg/kg I.V., AII 0.05 mcg/kg IV, 90 min post dose
[4] = 1 mg/kg I.V., AII 0.05 mcg/kg IV, 120 min post dose
[5] = 1 mg/kg I.V., AII 0.05 mcg/kg IV, 180 min post dose
[6] = 1 mg/kg I.V., AII 0.05 mcg/kg IV, 240 min post dose
[7] = 1 mg/kg I.V., AII 0.1 mcg/kg IV, 30 min post dose
[8] = 1 mg/kg I.V., AII 0.1 mcg/kg IV, 60 min post dose
[9] = 1 mg/kg I.V., AII 0.1 mcg/kg IV, 90 min post dose
[10] = 1 mg/kg I.V., AII 0.1 mcg/kg IV, 120 min post dose
[11] = 1 mg/kg I.V., AII 0.1 mcg/kg IV, 180 min post dose
[12] = 1 mg/kg I.V., AII 0.1 mcg/kg IV, 240 min post dose
[13] = 2 mg/kg P.O., AII 0.05 mcg/kg IV, 30 min post dose
[14] = 2 mg/kg P.O., AII 0.05 mcg/kg IV, 60 min post dose
[15] = 2 mg/kg P.O., AII 0.05 mcg/kg IV, 90 min post dose
[16] = 2 mg/kg P.O., AII 0.05 mcg/kg IV, 120 min post dose
[17] = 2 mg/kg P.O., AII 0.05 mcg/kg IV, 180 min post dose
[18] = 2 mg/kg P.O., AII 0.1 mcg/kg IV, 30 min post dose
[19] = 2 mg/kg P.O., AII 0.1 mcg/kg IV, 60 min post dose
[20] = 2 mg/kg P.O., AII 0.1 mcg/kg IV, 90 min post dose
[21] = 2 mg/kg P.O., AII 0.1 mcg/kg IV, 120 min post dose
[22] = 2 mg/kg P.O., AII 0.1 mcg/kg IV, 180 min post dose
[23] = 1 mg/kg I.V., AII 0.05 mcg/kg IV, 30 min post dose, 1 mg/kg
[24] = 1 mg/kg I.V., AII 0.05 mcg/kg IV, 60 min post dose, 1 mg/kg
[25] = 1 mg/kg I.V., AII 0.05 mcg/kg IV, 90 min post dose, 1 mg/kg
[26] = 1 mg/kg I.V., AII 0.05 mcg/kg IV, 180 min post dose, 1 mg/kg
[27] = 1 mg/kg I.V., AII 0.05 mcg/kg IV, 240 min post dose, 1 mg/kg
[28] = 1 mg/kg I.V., AII 0.1 mcg/kg IV, 30 min post dose, 1 mg/kg
[29] = 1 mg/kg I.V., AII 0.1 mcg/kg IV, 60 min post dose, 1 mg/kg
[30] = 1 mg/kg I.V., AII 0.1 mcg/kg IV, 90 min post dose, 1 mg/kg
[31] = 1 mg/kg I.V., AII 0.1 mcg/kg IV, 120 min post dose, 1 mg/kg
[32] = 1 mg/kg I.V., AII 0.1 mcg/kg IV, 180 min post dose, 1 mg/kg
[33] = 1 mg/kg I.V., AII 0.1 mcg/kg IV, 240 min post dose, 1 mg/kg
[34] = 2 mg/kg P.O., AII 0.05 mcg/kg IV, 30 min post dose, 2 mg/kg
[35] = 2 mg/kg P.O., AII 0.05 mcg/kg IV, 90 min post dose, 2 mg/kg
[36] = 2 mg/kg P.O., AII 0.05 mcg/kg IV, 120 min post dose, 2 mg/kg
[37] = 2 mg/kg P.O., AII 0.05 mcg/kg IV, 180 min post dose, 2 mg/kg
[38] = 2 mg/kg P.O., AII 0.1 mcg/kg IV, 60 min post dose, 2 mg/kg
[39] = 2 mg/kg P.O., AII 0.1 mcg/kg IV, 120 min post dose, 2 mg/kg
[40] = 2 mg/kg P.O., AII 0.1 mcg/kg IV, 180 min post dose, 2 mg/kg

## CCCCc1nc2ccc(C(C)(O)CC3CCCN3)cc2c(=O)n1Cc1ccc(-c2ccccc2-c2nnn[nH]2)cc1 (stereo not drawn) [Example 79, CIS-2-Butyl-6-[1-hydroxy-1-methyl-2-(2-pyrrolidinyl)ethyl]-3-[[21-(1H-tetrazol-5-yl)[1,1'-biphenyl]-4-yl]methyl]-4(3H)-quinazolinone]
[1]
  % Inhibition: 93%
  Average Change: 2.5 mmhg
  Response After AII: 200 mmhg
[2]
  % Inhibition: 67%
  Average Change: 12.5 mmhg
  Response After AII: 220 mmhg
[3]
  % Inhibition: 53%
  Average Change: 17.5 mmhg
  Response After AII: 220 mmhg
[4]
  % Inhibition: 47%
  Average Change: 20 mmhg
  Change: 20 mmhg
  Response After AII: 215 mmhg
[5]
  % Inhibition: 53%
  Average Change: 17.5 mmhg
  Response After AII: 220 mmhg
[6]
  % Inhibition: 20%
  Average Change: 30 mmhg
[7]
  % Inhibition: 76%
  Average Change: 11 mmhg
  Response After AII: 202 mmhg
[8]
  % Inhibition: 62%
  Average Change: 17 mmhg
[9]
  % Inhibition: 56%
  Average Change: 20 mmhg
  Response After AII: 220 mmhg
[10]
  % Inhibition: 39%
  Average Change: 27.5 mmhg
[11]
  % Inhibition: 50%
  Average Change: 22.5 mmhg
  Response After AII: 220 mmhg
[12]
  % Inhibition: 24%
  Average Change: 34 mmhg
[13]
  % Inhibition: 0%
  Average Change: 27.5 mmhg
[14]
  % Inhibition: -9%
  Average Change: 30 mmhg
  Change: 30 mmhg
[15]
  % Inhibition: 13%
  Average Change: 24 mmhg
[16]
  % Inhibition: 15%
  Average Change: 23.5 mmhg
[17]
  % Inhibition: 5%
  Average Change: 26 mmhg
[18]
  % Inhibition: -9%
  Average Change: 30 mmhg
  Change: 30 mmhg
[19]
  % Inhibition: -36%
  Average Change: 37.5 mmhg
[20]
  % Inhibition: -55%
  Average Change: 42.5 mmhg
  Response After AII: 270 mmhg
[21]
  % Inhibition: -11%
  Average Change: 30.5 mmhg
[22]
  % Inhibition: -40%
  Average Change: 38.5 mmhg
[23]
  Change: 0 mmhg and 5 mmhg
  Response After AII: 205 mmhg
[24]
  Change: 15 mmhg and 10 mmhg
  Response After AII: 205 mmhg
[25]
  Change: 15 mmhg and 20 mmhg
  Response After AII: 215 mmhg
[26]
  Change: 15 mmhg and 20 mmhg
  Response After AII: 215 mmhg
[27]
  Change: 25 mmhg and 35 mmhg
  Response After AII: 220 mmhg and 235 mmhg
[28]
  Change: 15 mmhg and 7 mmhg
  Response After AII: 205 mmhg
[29]
  Change: 19 mmhg and 15 mmhg
  Response After AII: 214 mmhg and 210 mmhg
[30]
  Change: 25 mmhg and 15 mmhg
  Response After AII: 215 mmhg
[31]
  Change: 30 mmhg and 25 mmhg
  Response After AII: 230 mmhg and 220 mmhg
[32]
  Change: 30 mmhg and 15 mmhg
  Response After AII: 225 mmhg
[33]
  Change: 33 mmhg and 35 mmhg
  Response After AII: 238 mmhg and 240 mmhg
1 mg/kg I.V., before AII 0.05 mcg/kg IV, 30 min post dose
  Control Before AII: 200 mmhg
1 mg/kg I.V., before AII 0.05 mcg/kg IV, 60 min post dose, 1 mg/kg
  Control Before AII: 205 mmhg and 195 mmhg
1 mg/kg I.V., before AII 0.05 mcg/kg IV, 90 min post dose
  Control Before AII: 200 mmhg
1 mg/kg I.V., before AII 0.05 mcg/kg IV, 120 min post dose
  Control Before AII: 195 mmhg
1 mg/kg I.V., before AII 0.05 mcg/kg IV, 180 min post dose, 1 mg/kg
  Control Before AII: 205 mmhg and 195 mmhg
1 mg/kg I.V., before AII 0.05 mcg/kg IV, 240 min post dose, 1 mg/kg
  Control Before AII: 195 mmhg and 200 mmhg
1 mg/kg I.V., before AII 0.1 mcg/kg IV, 30 min post dose, 1 mg/kg
  Control Before AII: 190 mmhg and 195 mmhg
1 mg/kg I.V., before AII 0.1 mcg/kg IV, 60 min post dose
  Control Before AII: 195 mmhg
1 mg/kg I.V., before AII 0.1 mcg/kg IV, 90 min post dose, 1 mg/kg
  Control Before AII: 195 mmhg and 200 mmhg
1 mg/kg I.V., before AII 0.1 mcg/kg IV, 120 min post dose, 1 mg/kg
  Control Before AII: 200 mmhg and 195 mmhg
1 mg/kg I.V., before AII 0.1 mcg/kg IV, 180 min post dose, 1 mg/kg
  Control Before AII: 195 mmhg and 205 mmhg
1 mg/kg I.V., before AII 0.1 mcg/kg IV, 240 min post dose
  Control Before AII: 205 mmhg
[34]
  Change: 30 mmhg and 25 mmhg
  Response After AII: 260 mmhg and 275 mmhg
2 mg/kg P.O., AII 0.05 mcg/kg IV, 60 min post dose, 2 mg/kg
  Response After AII: 265 mmhg and 270 mmhg
[35]
  Change: 20 mmhg and 28 mmhg
  Response After AII: 245 mmhg and 258 mmhg
[36]
  Change: 17 mmhg and 30 mmhg
  Response After AII: 242 mmhg and 265 mmhg
[37]
  Change: 17 mmhg and 35 mmhg
  Response After AII: 252 mmhg and 275 mmhg
2 mg/kg P.O., AII 0.1 mcg/kg IV, 30 min post dose, 2 mg/kg
  Response After AII: 265 mmhg and 275 mmhg
[38]
  Change: 35 mmhg and 40 mmhg
  Response After AII: 260 mmhg and 280 mmhg
2 mg/kg P.O., AII 0.1 mcg/kg IV, 90 min post dose, 2 mg/kg
  Change: 45 mmhg and 40 mmhg
[39]
  Change: 31 mmhg and 30 mmhg
  Response After AII: 255 mmhg and 270 mmhg
[40]
  Change: 32 mmhg and 45 mmhg
  Response After AII: 262 mmhg and 280 mmhg
2 mg/kg P.O., before AII 0.05 mcg/kg IV, 30 min post dose
  Control Before AII: 250 mmhg
2 mg/kg P.O., before AII 0.05 mcg/kg IV, 30 min post dose, 2 mg/kg
  Control Before AII: 230 mmhg
2 mg/kg P.O., before AII 0.05 mcg/kg IV, 60 min post dose
  Control Before AII: 240 mmhg
2 mg/kg P.O., before AII 0.05 mcg/kg IV, 60 min post dose, 2 mg/kg
  Control Before AII: 235 mmhg
2 mg/kg P.O., before AII 0.05 mcg/kg IV, 90 min post dose, 2 mg/kg
  Control Before AII: 225 mmhg and 230 mmhg
2 mg/kg P.O., before AII 0.05 mcg/kg IV, 120 min post dose, 2 mg/kg
  Control Before AII: 225 mmhg and 235 mmhg
2 mg/kg P.O., before AII 0.05 mcg/kg IV, 180 min post dose
  Control Before AII: 240 mmhg
2 mg/kg P.O., before AII 0.05 mcg/kg IV, 180 min post dose, 2 mg/kg
  Control Before AII: 235 mmhg
2 mg/kg P.O., before AII 0.1 mcg/kg IV, 30 min post dose, 2 mg/kg
  Control Before AII: 235 mmhg and 245 mmhg
2 mg/kg P.O., before AII 0.1 mcg/kg IV, 60 min post dose
  Control Before AII: 240 mmhg
2 mg/kg P.O., before AII 0.1 mcg/kg IV, 60 min post dose, 2 mg/kg
  Control Before AII: 225 mmhg
2 mg/kg P.O., before AII 0.1 mcg/kg IV, 90 min post dose, 2 mg/kg
  Control Before AII: 225 mmhg and 230 mmhg
2 mg/kg P.O., before AII 0.1 mcg/kg IV, 120 min post dose
  Control Before AII: 240 mmhg
2 mg/kg P.O., before AII 0.1 mcg/kg IV, 120 min post dose, 2 mg/kg
  Control Before AII: 224 mmhg
2 mg/kg P.O., before AII 0.1 mcg/kg IV, 180 min post dose, 2 mg/kg
  Control Before AII: 230 mmhg and 235 mmhg
